Experimental data as given in PubChem BioAssay (NCI).
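Interpolation was linear, between the two tested concentrations surrounding the appropriate level; five concentrations were tested over 48 hours in 96-well plates. GI50: concentration for 50% inhibition of growth. The concentration for full growth arrest is given as TGI.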

How the values were obtained:
Test in all cases: inhibition of tumour cell growth, NCI panel, 48 h
[1] = test system: A549 NSCLC
[2] = test system: RPMI-8226 leukemia
[3] = test system: SR leukemia
[4] = test system: SN12C renal
[5] = test system: OVCAR-8 ovarian
[6] = test system: NCI-H460 lung
[7] = test system: HOP-62 NSCLC
[8] = test system: UACC-257 melanoma
[9] = test system: 786-0 renal
[10] = test system: MDA-MB-435
[11] = test system: ACHN renal
[12] = test system: COLO 205 colon
[13] = test system: UO-31 renal
[14] = test system: MALME-3M melanoma
[15] = test system: SF-539 CNS
[16] = test system: OVCAR-4 ovarian
[17] = test system: SK-MEL-28 melanoma
[18] = test system: DU-145 prostate
[19] = test system: U251 CNS
[20] = test system: SF-295 CNS
[21] = test system: NCI-H23 lung
[22] = test system: MDA-MB-468 breast
[23] = test system: EKVX NSCLC
[24] = test system: MCF7 breast
[25] = test system: A498 renal
[26] = test system: KM12 colon
[27] = test system: NCI-H522 lung
[28] = test system: SK-MEL-5 melanoma
[29] = test system: HCT-15 colon
[30] = test system: HS 578T breast

**Q.** How did the TGI [1] turn out when `O=C(Nc1ccc(OCc2ccc(Cl)cc2)cc1)Nc1ccc(Cl)c(C(F)(F)F)c1` was run?
**A.** Its TGI is 8.07 µM.

**Q.** And the GI50 [2]?
**A.** Its GI50 is 1.55 µM.

**Q.** What about the TGI [2] of the same compound?
**A.** The TGI was 13.5 µM.

**Q.** And the GI50 [3]?
**A.** The GI50 was 2.95 µM.

**Q.** What about the TGI [3] of the same compound?
**A.** Its TGI is 15.7 µM.

**Q.** What about the GI50 [4] of the same compound?
**A.** Its GI50 is 2.03 µM.

**Q.** What about the TGI [4] of the same compound?
**A.** The TGI was 6.46 µM.

**Q.** What about the GI50 [5] of the same compound?
**A.** The GI50 was 2.32 µM.

**Q.** What about the TGI [5] of the same compound?
**A.** The TGI was 7.19 µM.

**Q.** What about the GI50 [6] of the same compound?
**A.** Its GI50 is 1.47 µM.

**Q.** And the TGI [6]?
**A.** Its TGI is 3.99 µM.

**Q.** What about the GI50 [7] of the same compound?
**A.** The GI50 was 2.64 µM.

**Q.** What about the TGI [7] of the same compound?
**A.** Its TGI is 8.18 µM.

**Q.** And the GI50 [8]?
**A.** Its GI50 is 2.33 µM.

**Q.** And the TGI [8]?
**A.** Its TGI is 5.96 µM.

**Q.** What about the GI50 [9] of the same compound?
**A.** The GI50 was 4.09 µM.

**Q.** What about the TGI [9] of the same compound?
**A.** The TGI was 13.3 µM.

**Q.** What about the GI50 [10] of the same compound?
**A.** Its GI50 is 2.59 µM.

**Q.** What about the TGI [10] of the same compound?
**A.** Its TGI is 8.51 µM.

**Q.** What about the GI50 [11] of the same compound?
**A.** The GI50 was 2.37 µM.

**Q.** And the TGI [11]?
**A.** The TGI was 7.62 µM.

**Q.** And the GI50 [12]?
**A.** Its GI50 is 1.97 µM.

**Q.** And the TGI [12]?
**A.** The TGI was 4.23 µM.

**Q.** And the GI50 [13]?
**A.** The GI50 was 1.82 µM.

**Q.** And the TGI [13]?
**A.** Its TGI is 6.73 µM.

**Q.** And the GI50 [14]?
**A.** Its GI50 is 1.75 µM.

**Q.** And the TGI [14]?
**A.** The TGI was 4.51 µM.

**Q.** What about the GI50 [15] of the same compound?
**A.** The GI50 was 2.4 µM.

**Q.** And the TGI [15]?
**A.** The TGI was 5.98 µM.

**Q.** What about the GI50 [16] of the same compound?
**A.** The GI50 was 2.37 µM.

**Q.** What about the TGI [16] of the same compound?
**A.** Its TGI is 9.36 µM.

**Q.** And the GI50 [17]?
**A.** Its GI50 is 2.84 µM.

**Q.** And the TGI [17]?
**A.** Its TGI is 10.4 µM.

**Q.** And the GI50 [18]?
**A.** Its GI50 is 2.83 µM.

**Q.** What about the TGI [18] of the same compound?
**A.** Its TGI is 10.7 µM.

**Q.** And the GI50 [19]?
**A.** The GI50 was 1.92 µM.

**Q.** What about the TGI [19] of the same compound?
**A.** The TGI was 4.55 µM.

**Q.** What about the GI50 [20] of the same compound?
**A.** Its GI50 is 1.42 µM.

**Q.** And the TGI [20]?
**A.** Its TGI is 3.7 µM.

**Q.** What about the GI50 [21] of the same compound?
**A.** The GI50 was 1.39 µM.

**Q.** And the TGI [21]?
**A.** The TGI was 3.83 µM.

**Q.** What about the GI50 [22] of the same compound?
**A.** Its GI50 is 1.54 µM.

**Q.** What about the TGI [22] of the same compound?
**A.** The TGI was 4.41 µM.

**Q.** What about the GI50 [23] of the same compound?
**A.** The GI50 was 2.18 µM.

**Q.** And the TGI [23]?
**A.** The TGI was 5.95 µM.

**Q.** What about the GI50 [24] of the same compound?
**A.** Its GI50 is 1.95 µM.

**Q.** What about the TGI [24] of the same compound?
**A.** Its TGI is 5.96 µM.

**Q.** And the GI50 [25]?
**A.** Its GI50 is 1.96 µM.

**Q.** What about the TGI [25] of the same compound?
**A.** Its TGI is 5.21 µM.

**Q.** What about the GI50 [26] of the same compound?
**A.** The GI50 was 2.62 µM.

**Q.** And the TGI [26]?
**A.** The TGI was 9.32 µM.

**Q.** What about the GI50 [27] of the same compound?
**A.** Its GI50 is 1.82 µM.

**Q.** And the TGI [27]?
**A.** Its TGI is 5.28 µM.

**Q.** And the GI50 [28]?
**A.** Its GI50 is 1.75 µM.

**Q.** What about the TGI [28] of the same compound?
**A.** Its TGI is 3.35 µM.

**Q.** What about the GI50 [29] of the same compound?
**A.** The GI50 was 1.87 µM.

**Q.** And the TGI [29]?
**A.** Its TGI is 10.6 µM.

**Q.** What about the GI50 [30] of the same compound?
**A.** Its GI50 is 2.27 µM.

**Q.** What about the TGI [30] of the same compound?
**A.** Its TGI is 6.7 µM.
